How the values were obtained:
Homo sapiens [1] = organism: Homo sapiens; assay: Binding of 14C-epirubicin at 100 ng.ml-1 concentration to plasma protein of man; type: cell-free; set-up: gender
Homo sapiens [2] = organism: Homo sapiens; assay: Binding of 14C-epirubicin at 500 ng.ml-1 concentration to plasma protein of man; type: cell-free; set-up: gender
Homo sapiens [3] = organism: Homo sapiens; assay: Binding of 14C-epirubicin at 1000 ng.ml-1 concentration to plasma protein of man; type: cell-free; set-up: gender
Mus musculus [4] = organism: Mus musculus; assay: Binding of 14C-epirubicin at 20 ng.ml-1 concentration to plasma protein of mouse; type: cell-free; conditions: CD-1
Mus musculus [5] = organism: Mus musculus; assay: Binding of 14C-epirubicin at 100 ng.ml-1 concentration to plasma protein of mouse; type: cell-free; conditions: CD-1
Mus musculus [6] = organism: Mus musculus; assay: Binding of 14C-epirubicin at 500 ng.ml-1 concentration to plasma protein of mouse; type: cell-free; conditions: CD-1
Mus musculus [7] = organism: Mus musculus; assay: Binding of 14C-epirubicin at 1000 ng.ml-1 concentration to plasma protein of mouse; type: cell-free; conditions: CD-1
Rattus norvegicus [8] = organism: Rattus norvegicus; assay: Binding of 14C-epirubicin at 20 ng.ml-1 concentration to plasma protein of rat; type: cell-free; conditions: SD
Rattus norvegicus [9] = organism: Rattus norvegicus; assay: Binding of 14C-epirubicin at 100 ng.ml-1 concentration to plasma protein of rat; type: cell-free; conditions: SD
Rattus norvegicus [10] = organism: Rattus norvegicus; assay: Binding of 14C-epirubicin at 500 ng.ml-1 concentration to plasma protein of rat; type: cell-free; conditions: SD
Rattus norvegicus [11] = organism: Rattus norvegicus; assay: Binding of 14C-epirubicin at 1000 ng.ml-1 concentration to plasma protein of rat; type: cell-free; conditions: SD
Oryctolagus cuniculus [12] = organism: Oryctolagus cuniculus; assay: Binding of 14C-epirubicin at 20 ng.ml-1 concentration to plasma protein of rabbit; type: cell-free; conditions: New Zealand White
Oryctolagus cuniculus [13] = organism: Oryctolagus cuniculus; assay: Binding of 14C-epirubicin at 100 ng.ml-1 concentration to plasma protein of rabbit; type: cell-free; conditions: New Zealand White
Oryctolagus cuniculus [14] = organism: Oryctolagus cuniculus; assay: Binding of 14C-epirubicin at 500 ng.ml-1 concentration to plasma protein of rabbit; type: cell-free; conditions: New Zealand White
Oryctolagus cuniculus [15] = organism: Oryctolagus cuniculus; assay: Binding of 14C-epirubicin at 1000 ng.ml-1 concentration to plasma protein of rabbit; type: cell-free; conditions: New Zealand White
Canis lupus familiaris [16] = organism: Canis lupus familiaris; assay: Binding of 14C-epirubicin at 20 ng.ml-1 concentration to plasma protein of dog; type: cell-free; conditions: Beagle
Canis lupus familiaris [17] = organism: Canis lupus familiaris; assay: Binding of 14C-epirubicin at 100 ng.ml-1 concentration to plasma protein of dog; type: cell-free; conditions: Beagle
Canis lupus familiaris [18] = organism: Canis lupus familiaris; assay: Binding of 14C-epirubicin at 500 ng.ml-1 concentration to plasma protein of dog; type: cell-free; conditions: Beagle
Canis lupus familiaris [19] = organism: Canis lupus familiaris; assay: Binding of 14C-epirubicin at 1000 ng.ml-1 concentration to plasma protein of dog; type: cell-free; conditions: Beagle
Homo sapiens [20] = organism: Homo sapiens; assay: Binding of epirubicin at 20-1000 ng.ml-1 concentration to plasma protein of human; type: cell-free
Homo sapiens [21] = organism: Homo sapiens; assay: Binding of epirubicin to plasma protein of human; type: cell-free
Rattus norvegicus [22] = organism: Rattus norvegicus; assay: Binding of 14C-epirubicin at 0.164 ug-ml-1 concentration to plasma protein of rat; type: organism-based; set-up: conc 0.164 ug.ml-1, dosed compound id 2.46808e+06, dosed compound name, sampling time 30 min; conditions: SD, at 0.164 µg/mL
Rattus norvegicus [23] = organism: Rattus norvegicus; assay: Binding of 14C-epirubicin at 0.077 ug-ml-1 concentration to plasma protein of rat; type: organism-based; set-up: conc 0.077 ug.ml-1, dosed compound id 2.46808e+06, dosed compound name, sampling time 6 h; conditions: SD, at 0.077 µg/mL
Rattus norvegicus [24] = organism: Rattus norvegicus; assay: Binding of 14C-epirubicin at 0.048 ug-ml-1 concentration to plasma protein of rat; type: organism-based; set-up: conc 0.048 ug.ml-1, dosed compound id 2.46808e+06, dosed compound name, sampling time 24 h; conditions: SD, at 0.048 µg/mL
Rattus norvegicus [25] = organism: Rattus norvegicus; assay: Binding of 14C-epirubicin at 0.056 ug-ml-1 concentration to plasma protein of rat; type: cell-free; set-up: conc 0.056 ug.ml-1; conditions: SD, at 0.056 µg/mL
Rattus norvegicus [26] = organism: Rattus norvegicus; assay: Binding of 14C-epirubicin at 0.223 ug-ml-1 concentration to plasma protein of rat; type: cell-free; set-up: conc 0.223 ug.ml-1; conditions: SD, at 0.223 µg/mL
Rattus norvegicus [27] = organism: Rattus norvegicus; assay: Binding of 14C-epirubicin at 1.081 ug-ml-1 concentration to plasma protein of rat; type: cell-free; set-up: conc 1.081 ug.ml-1; conditions: SD, at 1.081 µg/mL
[28] = Terminal half-life of carminomycin following intravenous carminomycin at 1.0 mg.Kg-1 dose in dog; type: ADME, organism-based, Canis lupus familiaris; set-up: dose 1 mg.Kg-1, dosed compound id 2.46809e+06, dosed compound name Carminomycin, route intravenous; conditions: Beagle, plasma
[29] = Volume of distribution of carminomycin following intravenous carminomycin at 1.0 mg.Kg-1 dose in dog; type: ADME, organism-based, Canis lupus familiaris; set-up: dose 1 mg.Kg-1, dosed compound id 2.46809e+06, dosed compound name Carminomycin, route intravenous; conditions: Beagle, plasma
[30] = Plasma clearance of carminomycin following intravenous carminomycin at 1.0 mg.Kg-1 dose in dog; type: ADME, organism-based, Canis lupus familiaris; set-up: dose 1 mg.Kg-1, dosed compound id 2.46809e+06, dosed compound name Carminomycin, route intravenous; conditions: Beagle, read-out: Clp
[31] = Terminal half-life of daunorubicin following intravenous daunorubicin at 1.2 mg.Kg-1 dose in dog; type: ADME, organism-based, Canis lupus familiaris; set-up: dose 1.2 mg.Kg-1, dosed compound id 2.46809e+06, dosed compound name Daunorubicin, route intravenous; conditions: Beagle, plasma
[32] = Volume of distribution of daunorubicin following intravenous daunorubicin at 1.2 mg.Kg-1 dose in dog; type: ADME, organism-based, Canis lupus familiaris; set-up: dose 1.2 mg.Kg-1, dosed compound id 2.46809e+06, dosed compound name Daunorubicin, route intravenous; conditions: Beagle, plasma
[33] = Plasma clearance of daunorubicin following intravenous daunorubicin at 1.2 mg.Kg-1 dose in dog; type: ADME, organism-based, Canis lupus familiaris; set-up: dose 1.2 mg.Kg-1, dosed compound id 2.46809e+06, dosed compound name Daunorubicin, route intravenous; conditions: Beagle, read-out: Clp
[34] = Mean terminal half-life for ADR-529 following intravenous epirubicin at 0.5 mg.Kg-1 dose administered approximately 25 minute prior to epirubicin once weekly for four weeks in dog; type: ADME, organism-based, Canis lupus familiaris; conditions: Beagle, plasma
[35] = Mean terminal half-life for ADR-529 following intravenous epirubicin at 1 mg.Kg-1 dose administered approximately 25 minute prior to epirubicin once weekly for four weeks in dog; type: ADME, organism-based, Canis lupus familiaris; conditions: Beagle, plasma
[36] = AUC (2-8 h) of ADR-529 following intravenous ADR-529 at 10 mg.Kg-1 dose administered approximately 25 minute prior to epirubicin once weekly for four weeks in dog; type: ADME, organism-based, Canis lupus familiaris; set-up: dose 10 mgKg-1, dosed compound id 2.4681e+06, dosed compound name Dexrazoxane, dose level Intermediate, route intravenous, sampling time 8 h, study doses 5/10/20 mgKg-1; conditions: Beagle, plasma
[37] = AUC (2-8 h) of ADR-529 following intravenous ADR-529 at 20 mg.Kg-1 dose administered approximately 25 minute prior to epirubicin once weekly for four weeks in dog; type: ADME, organism-based, Canis lupus familiaris; set-up: dose 20 mgKg-1, dosed compound id 2.4681e+06, dosed compound name Dexrazoxane, dose level High, route intravenous, sampling time 8 h, study doses 5/10/20 mgKg-1; conditions: Beagle, plasma

SMILES: COc1cccc2c1C(=O)c1c(O)c3c(c(O)c1C2=O)C[C@@](O)(C(=O)CO)C[C@@H]3O[C@H]1C[C@H](N)[C@@H](O)[C@H](C)O1
- PPB (Homo sapiens [1]): 78.1%
- PPB (Homo sapiens [2]): 77.3%
- PPB (Homo sapiens [3]): 76.8%
- PPB (Mus musculus [4]): 76.5%
- PPB (Mus musculus [5]): 79.9%
- PPB (Mus musculus [6]): 80%
- PPB (Mus musculus [7]): 80.3%
- PPB (Rattus norvegicus [8]): 79.1%
- PPB (Rattus norvegicus [9]): 82.8%
- PPB (Rattus norvegicus [10]): 81.3%
- PPB (Rattus norvegicus [11]): 78.7%
- PPB (Oryctolagus cuniculus [12]): 78.5%
- PPB (Oryctolagus cuniculus [13]): 70.2%
- PPB (Oryctolagus cuniculus [14]): 78.4%
- PPB (Oryctolagus cuniculus [15]): 77.1%
- PPB (Canis lupus familiaris [16]): 80.3%
- PPB (Canis lupus familiaris [17]): 81.2%
- PPB (Canis lupus familiaris [18]): 80.7%
- PPB (Canis lupus familiaris [19]): 80.9%
- PPB (Homo sapiens [20]): 77%
- PPB (Homo sapiens [21]): 75%
- PPB (Rattus norvegicus [22]): 80.7%
- PPB (Rattus norvegicus [23]): 85.6%
- PPB (Rattus norvegicus [24]): 88.2%
- PPB (Rattus norvegicus [25]): 81.7%
- PPB (Rattus norvegicus [26]): 81%
- PPB (Rattus norvegicus [27]): 82.2%

SMILES: CC(=O)[C@]1(O)Cc2c(O)c3c(c(O)c2[C@@H](O[C@H]2C[C@H](N)[C@H](O)[C@H](C)O2)C1)C(=O)c1c(O)cccc1C3=O [CARUBICIN]
- half-life [28]: 20.3 min
- Vd [29]: 98.5 L/kg
- clearance [30]: 1360 mL/min

SMILES: COc1cccc2c1C(=O)c1c(O)c3c(c(O)c1C2=O)C[C@@](O)(C(C)=O)C[C@@H]3O[C@H]1C[C@H](N)[C@H](O)[C@H](C)O1 [DAUNORUBICIN]
- half-life [31]: 5.3 min
- Vd [32]: 51 L/kg
- clearance [33]: 2030 mL/min

SMILES: C[C@@H](CN1CC(=O)NC(=O)C1)N1CC(=O)NC(=O)C1 [DEXRAZOXANE]
- half-life [34]: 108 min
- half-life [35]: 72 min
- AUC [36]: 2710 ng·h/mL
- AUC [37]: 5570 ng·h/mL

Source: ChEMBL document CHEMBL3508140 (2016)
